According to patent US12478605B2, “Biochanin a derivatives for treatment of BEST1-related retinopathies” (Universität Regensburg, priority 2020, dated 2025):
Numbering of substitutions follows the chain as printed.

How the values were obtained:
Format in all cases: cell-based
mutant BEST1 R218C = biological target: T1, mutant BEST1 R218C (Homo sapiens, UniProt O76090, R218C); experiment: YFP-based I- efflux assay in MDCKII cells co-expressing YFP and mutant BEST1 R218C; conditions: 5 μM, compound addition for 24 h, FIGS. 6-8
T1 construct: expressed in transfected cells
T1 sequence (O76090 1-585 R218C): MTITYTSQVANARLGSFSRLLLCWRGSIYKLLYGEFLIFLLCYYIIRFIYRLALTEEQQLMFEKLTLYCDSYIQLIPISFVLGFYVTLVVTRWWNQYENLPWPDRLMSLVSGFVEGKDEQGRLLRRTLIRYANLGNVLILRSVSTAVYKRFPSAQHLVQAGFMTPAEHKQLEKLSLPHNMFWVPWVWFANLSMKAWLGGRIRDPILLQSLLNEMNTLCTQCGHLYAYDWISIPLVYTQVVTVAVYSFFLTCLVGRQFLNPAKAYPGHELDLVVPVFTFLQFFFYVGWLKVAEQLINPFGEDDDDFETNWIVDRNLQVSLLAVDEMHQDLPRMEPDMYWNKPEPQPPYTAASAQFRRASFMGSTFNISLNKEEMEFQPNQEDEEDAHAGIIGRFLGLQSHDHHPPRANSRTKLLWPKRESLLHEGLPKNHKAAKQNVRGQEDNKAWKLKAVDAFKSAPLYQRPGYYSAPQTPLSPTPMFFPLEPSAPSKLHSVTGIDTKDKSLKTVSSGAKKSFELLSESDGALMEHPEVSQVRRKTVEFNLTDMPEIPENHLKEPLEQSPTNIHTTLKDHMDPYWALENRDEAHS
Procedure: MDCKII cells co-expressing yellow fluorescence protein (YFP) and mutant BEST1 R218C were seeded on black 96-well plates and cultivated for 6 days to achieve polarity, a crucial requirement for correct basolateral localization of BEST1 in epithelial cells. Compounds were tested at 5 μM concentration in a 96-well format. After compound addition for 24 h, cells were subjected to an outwardly directed iodid (I^−)-gradient to drive BEST1-mediated I^− efflux and produce increasing fluorescence signals. Each assay consisted of recording of YFP quenching after I^− pre-incubation for 6 min (=100% value), followed by 7 min of recording of increasing fluorescence after addition of the chloride (Cr) containing solution. Changes of fluorescence intensities were monitored on a plate reader. The effect on the kinetics of I— efflux was tested for Biochanin A (FIG. 6A), Trimethoxyisoflavone (FIG. 6B), 5,4-dimethoxy hydroxyisoflavone (FIG. 6C), Biochanin A-7-methyl ether (FIG. 6D), Biochanin A-7-acetate (FIG. 6E), Biochanin A diacetate (FIG. 6F), Biochanin A-7-pentanoate (FIG. 6G), Biochanin A dipentanoate (FIG. 6H), Biochanin A-7-pivalate (FIG. 7A), Biochanin A-dipavalate (FIG. 7B), Biochanin A-7-acrylate (FIG. 7C), Biochanin A diacrylate (FIG. 7D), Biochanin A-7-methyl fumarate (FIG. 7E), Biochanin A-di(methyl fumarate) (FIG. 7F), Biochanin A-7-butylcarbamate (FIG. 7G), Biochanin A di(butylcarbamate) (FIG. 7H), Biochanin A-7-phosphate disodium salt (FIG. 8A), Biochanin A-7-isopropylate (FIG. 8B), 7-pivaloxymethyl-Biochanin A (FIG. 8C), Biochanin A diisopropylate (FIG. 8D), Biochanin A-7-isopropyl carbonate (FIG. 8E), Biochanin A diisopropyl carbonate (FIG. 8F), Isopropyloxycarbonylmethoxy-Biochanin A (FIG. 8G).

BEST-Y227N = biological target: T2, BEST-Y227N (Homo sapiens, UniProt O76090, Y227N); experiment: YFP-halide transport assay (I- influx), MDCKII cells expressing mutant BEST-Y227N; conditions: various concentrations from 2 μM to 20 μM, 24 h, FIG. 4C
T2 construct: expressed in transfected cells
T2 sequence (O76090 1-585 Y227N): T1 sequence (O76090 1-585 R218C) with C218R, Y227N

[1] = system: untransfected MDCKII cells; experiment: YFP-halide transport assay (I- influx), untransfected MDCKII controls; conditions: compound addition for 24 h, YFP quenching, FIG. 4B
Procedure: Human hiPSC-RPE or MDCKII cells were transduced via lentivirus particles which were produced by co-transfecting HEK293T cells with the yellow fluorescence protein (YFPH148Q/I152L)-pLJM1 and helper plasmids pMD2.G and psPAX2 using the Ca^2+ phospate transfection method. After six weeks of cultivation in 96-well black microtiter plates, cells were incubated with 100 mM Cl^− containing solution and basal YFP fluorescence was measured in a Tecan microplate reader. Subsequently Cl^− was replaced with equimolar I^− and decrease of YFP fluorescence intensity was monitored for another 2 min in 10 sec intervals.
To analyze BEST1-mediated anion transport in the cell lines generated in the previous examples, a well-established halide transport assay (Galietta et al., 2001) was adapted. […] Addition of I— leads to specific YFP quenching over time and changes of fluorescence intensities can be monitored on a plate reader. MDCKII cells were incubated with 100 mM Cl— containing solution and steady state YFP fluorescence signal intensities were measured after 6 minutes. Subsequently, Cl— was replaced by equimolar I— and anion permeability was monitored by decreasing YFP intensities as a result of BEST1-mediated I— influx in a time course up to 2 minutes (FIG. 2B). […]

Structure (SMILES): COc1ccc(-c2coc3cc(OC(C)=O)cc(OC(C)=O)c3c2=O)cc1 [Biochanin A diacetate, 3-(4-Methoxyphenyl)-4oxo-4H-chromene-5,7-diyl diacetate]
- anion transport activity (kinetics of I- efflux) in comparison to untreated cells (mutant BEST1 R218C): strongly increased
- anion transport activity (I- influx) (BEST-Y227N): moderately increased
- effect on kinetics of I- influx (anion transport activity) [1]: no or only little effect
